Data set [1] is described as follows: Excipients compatibility study with tazarotene. It is filed as physicochemical. As for the experimental part: Excipient compatibility study for tazarotene was carried out with various pharmaceutically acceptable excipients. The tazarotene was tested in a set of compatibility screening studies with the excipients in closed vials containing tazarotene. The excipients physical mixture were incubated in ovens with and without moisture at 60° C. or 40° C./75% RH for 4 weeks.

Data set [2] in a line: Multiple dose bioavailability study versus TAZORAC 0.1% cream. It is filed as in vivo, healthy male subjects. Particulars: after topical application of test or reference product. As for the experimental part: The study was a single-center, randomized, multiple dose, laboratory-blinded, open-label, 3-arm, parallel design in healthy male subjects. The following investigational products were to be administered: 1) Test product: composition of example 1 (tazarotene 0.1%) and 2) reference: TAZORAC cream 0.1%. Following were treatment arms: 1) Treatment 1: Test product applied twice daily, in the morning and evening, 12 hours apart; 2) Treatment 2: Test product applied once daily, in the morning; and 3) Treatment 3: Reference product applied once daily, in the morning. For each study arm (n=16), approximately 5 g of the Test or Reference product was to be applied to the subjects face, neck, shoulders, upper chest and upper back (total approximately equivalent to 15% body surface area (BSA)) over 14 consecutive days (Days 1 to 14). Blood sample were collected time to time as per the schedule of the study.

Regarding `CCOC(=O)c1ccc(C#Cc2ccc3c(c2)C(C)(C)CCS3)nc1` [tazarotene, Tazarotene], the excipient compatibility result in data set [1] (with benzyl alcohol, lactic acid, polysorbate 80) is “incompatible”; in data set [1] (with excipients of examples 1, 2, 3 (carbomer type A and B, cocobetaine, sodium lauryl sarcosinate, stearyl alcohol, cetyl alcohol, glycerine, vitamin E TPGS, gluconolactone, BHT, parabens)), “compatible”. Also, in data set [2], the “concentrations of the parent compound detected in plasma samples” value is recorded as “Very low concentrations”.

The values are drawn from patent US9931328B2, “Topical retinoid compositions” (DR. REDDY'S LABORATORIES, LTD., priority 2015, dated 2018).
